PubChem BioAssay (NCI)
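GI50 = concentration required for 50% inhibition of growth. Definition used: TGI = concentration required for complete inhibition of growth.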

Key:
Assay in all cases: NCI anticancer screen, dose series, 384-well format
[1] = system: 786-0 renal
[2] = system: A498 renal
[3] = system: A549 NSCLC
[4] = system: ACHN renal
[5] = system: BT-549 breast
[6] = system: CAKI-1 renal
[7] = system: CCRF-CEM leukemia
[8] = system: COLO 205 colon
[9] = system: DU-145 prostate
[10] = system: EKVX NSCLC
[11] = system: HCC-2998 colon
[12] = system: HCT-15 colon
[13] = system: HL-60(TB) leukemia
[14] = system: HOP-62 NSCLC
[15] = system: HOP-92 NSCLC
[16] = system: HS 578T breast
[17] = system: HT29 colon
[18] = system: IGROV1 ovarian
[19] = system: KM12 colon
[20] = system: M14 melanoma
[21] = system: MALME-3M melanoma
[22] = system: MCF7 breast
[23] = system: MDA-MB-231 breast
[24] = system: MDA-MB-435 melanoma
[25] = system: MDA-MB-468 breast
[26] = system: MOLT-4 leukemia
[27] = system: NCI-H226 lung
[28] = system: NCI-H23 lung
[29] = system: NCI-H322M lung
[30] = system: NCI-H460 NSCLC
[31] = system: NCI-H522 lung
[32] = system: NCI/ADR-RES ovarian
[33] = system: OVCAR-3 ovarian
[34] = system: OVCAR-4 ovarian
[35] = system: OVCAR-5 ovarian
[36] = system: OVCAR-8 ovarian
[37] = system: PC-3 prostate
[38] = system: RPMI-8226 leukemia
[39] = system: RXF 393 renal
[40] = system: SF-268 CNS
[41] = system: SF-295 CNS
[42] = system: SF-539 CNS
[43] = system: SK-MEL-2 melanoma
[44] = system: SK-MEL-28 melanoma
[45] = system: SK-MEL-5 melanoma
[46] = system: SK-OV-3 ovarian
[47] = system: SN12C renal
[48] = system: SNB-19 CNS
[49] = system: SNB-75 CNS
[50] = system: SR leukemia
[51] = system: SW-620 colon
[52] = system: T-47D breast
[53] = system: TK-10 renal
[54] = system: U251 glioblastoma
[55] = system: UACC-257 melanoma
[56] = system: UACC-62 melanoma

Question: For `OCc1ccc(-c2nn(Cc3ccccc3)c3ccccc23)o1`, which GI50 [1] is on record?
Answer: The GI50 was 34.5 µM.

Question: And the TGI [1]?
Answer: The TGI was > 100 µM.

Question: And the GI50 [2]?
Answer: The GI50 was 0.024 µM.

Question: And the TGI [2]?
Answer: The TGI was 0.0655 µM.

Question: What about the GI50 [3] of the same molecule?
Answer: Its GI50 is 19.8 µM.

Question: What about the TGI [3] of the same molecule?
Answer: Its TGI is 44.9 µM.

Question: And the GI50 [4]?
Answer: Its GI50 is 35 µM.

Question: And the TGI [4]?
Answer: The TGI was 81.9 µM.

Question: And the GI50 [5]?
Answer: Its GI50 is 17.4 µM.

Question: What about the TGI [5] of the same molecule?
Answer: The TGI was 31.5 µM.

Question: And the GI50 [6]?
Answer: The GI50 was 0.427 µM.

Question: And the TGI [6]?
Answer: The TGI was 3.49 µM.

Question: And the GI50 [7]?
Answer: The GI50 was 18 µM.

Question: What about the TGI [7] of the same molecule?
Answer: Its TGI is 32.3 µM.

Question: What about the GI50 [8] of the same molecule?
Answer: The GI50 was 18.6 µM.

Question: What about the TGI [8] of the same molecule?
Answer: Its TGI is 36.5 µM.

Question: What about the GI50 [9] of the same molecule?
Answer: The GI50 was 17.4 µM.

Question: And the TGI [9]?
Answer: The TGI was 32.8 µM.

Question: What about the GI50 [10] of the same molecule?
Answer: Its GI50 is 27.3 µM.

Question: What about the TGI [10] of the same molecule?
Answer: The TGI was 68.1 µM.

Question: What about the GI50 [11] of the same molecule?
Answer: The GI50 was 20.1 µM.

Question: What about the TGI [11] of the same molecule?
Answer: The TGI was 34.9 µM.

Question: What about the GI50 [12] of the same molecule?
Answer: The GI50 was 23 µM.

Question: And the TGI [12]?
Answer: The TGI was 49.6 µM.

Question: What about the GI50 [13] of the same molecule?
Answer: Its GI50 is 16.6 µM.

Question: What about the TGI [13] of the same molecule?
Answer: The TGI was 30.4 µM.

Question: What about the GI50 [14] of the same molecule?
Answer: The GI50 was 5.79 µM.

Question: What about the TGI [14] of the same molecule?
Answer: The TGI was 26.3 µM.

Question: What about the GI50 [15] of the same molecule?
Answer: Its GI50 is 16 µM.

Question: What about the TGI [15] of the same molecule?
Answer: The TGI was 30.8 µM.

Question: What about the GI50 [16] of the same molecule?
Answer: The GI50 was 20.3 µM.

Question: What about the TGI [16] of the same molecule?
Answer: The TGI was 42.8 µM.

Question: And the GI50 [17]?
Answer: The GI50 was 17.9 µM.

Question: And the TGI [17]?
Answer: The TGI was 32.3 µM.

Question: What about the GI50 [18] of the same molecule?
Answer: The GI50 was 0.424 µM.

Question: What about the TGI [18] of the same molecule?
Answer: Its TGI is 2.31 µM.

Question: What about the GI50 [19] of the same molecule?
Answer: The GI50 was 18.6 µM.

Question: What about the TGI [19] of the same molecule?
Answer: The TGI was 34 µM.

Question: And the GI50 [20]?
Answer: Its GI50 is 21.7 µM.

Question: What about the TGI [20] of the same molecule?
Answer: Its TGI is 39.7 µM.

Question: What about the GI50 [21] of the same molecule?
Answer: The GI50 was 20.4 µM.

Question: What about the TGI [21] of the same molecule?
Answer: The TGI was 36.4 µM.

Question: What about the GI50 [22] of the same molecule?
Answer: The GI50 was 2.34 µM.

Question: And the TGI [22]?
Answer: The TGI was > 100 µM.

Question: And the GI50 [23]?
Answer: Its GI50 is 20.3 µM.

Question: And the TGI [23]?
Answer: Its TGI is 45.8 µM.

Question: What about the GI50 [24] of the same molecule?
Answer: The GI50 was 20.8 µM.

Question: What about the TGI [24] of the same molecule?
Answer: Its TGI is 38 µM.

Question: And the GI50 [25]?
Answer: Its GI50 is 0.181 µM.

Question: And the TGI [25]?
Answer: Its TGI is 0.328 µM.

Question: What about the GI50 [26] of the same molecule?
Answer: The GI50 was 12.1 µM.

Question: And the TGI [26]?
Answer: The TGI was 24.7 µM.

Question: What about the GI50 [27] of the same molecule?
Answer: The GI50 was 0.166 µM.

Question: And the TGI [27]?
Answer: Its TGI is 0.314 µM.

Question: What about the GI50 [28] of the same molecule?
Answer: Its GI50 is 25.3 µM.

Question: What about the TGI [28] of the same molecule?
Answer: The TGI was 53.1 µM.

Question: What about the GI50 [29] of the same molecule?
Answer: Its GI50 is 33 µM.

Question: What about the TGI [29] of the same molecule?
Answer: Its TGI is > 100 µM.

Question: What about the GI50 [30] of the same molecule?
Answer: The GI50 was 16.4 µM.

Question: What about the TGI [30] of the same molecule?
Answer: The TGI was 30.3 µM.

Question: What about the GI50 [31] of the same molecule?
Answer: The GI50 was 14.6 µM.

Question: And the TGI [31]?
Answer: Its TGI is 28.2 µM.

Question: And the GI50 [32]?
Answer: Its GI50 is 21 µM.

Question: And the TGI [32]?
Answer: Its TGI is 42.7 µM.

Question: And the GI50 [33]?
Answer: The GI50 was 9.85 µM.

Question: And the TGI [33]?
Answer: Its TGI is 21.9 µM.

Question: And the GI50 [34]?
Answer: Its GI50 is 23.5 µM.

Question: And the TGI [34]?
Answer: Its TGI is 49 µM.

Question: And the GI50 [35]?
Answer: Its GI50 is 0.369 µM.

Question: And the TGI [35]?
Answer: The TGI was 5.99 µM.

Question: What about the GI50 [36] of the same molecule?
Answer: The GI50 was 23.5 µM.

Question: What about the TGI [36] of the same molecule?
Answer: The TGI was 47 µM.

Question: And the GI50 [37]?
Answer: Its GI50 is 19.7 µM.

Question: What about the TGI [37] of the same molecule?
Answer: Its TGI is 37.3 µM.

Question: And the GI50 [38]?
Answer: The GI50 was 9.64 µM.

Question: And the TGI [38]?
Answer: Its TGI is 21.3 µM.

Question: And the GI50 [39]?
Answer: The GI50 was 11.4 µM.

Question: And the TGI [39]?
Answer: The TGI was 27.5 µM.

Question: And the GI50 [40]?
Answer: Its GI50 is 29.8 µM.

Question: What about the TGI [40] of the same molecule?
Answer: Its TGI is 69.7 µM.

Question: What about the GI50 [41] of the same molecule?
Answer: The GI50 was 46.6 µM.

Question: And the TGI [41]?
Answer: The TGI was > 100 µM.

Question: And the GI50 [42]?
Answer: Its GI50 is 18.5 µM.

Question: And the TGI [42]?
Answer: Its TGI is 34.6 µM.

Question: And the GI50 [43]?
Answer: Its GI50 is 36.5 µM.

Question: What about the TGI [43] of the same molecule?
Answer: Its TGI is 54.5 µM.

Question: What about the GI50 [44] of the same molecule?
Answer: The GI50 was 24 µM.

Question: What about the TGI [44] of the same molecule?
Answer: The TGI was 41.4 µM.

Question: What about the GI50 [45] of the same molecule?
Answer: The GI50 was 18.3 µM.

Question: And the TGI [45]?
Answer: The TGI was 32.5 µM.

Question: What about the GI50 [46] of the same molecule?
Answer: Its GI50 is 22.5 µM.

Question: And the TGI [46]?
Answer: Its TGI is 41.4 µM.

Question: What about the GI50 [47] of the same molecule?
Answer: Its GI50 is 50.1 µM.

Question: What about the TGI [47] of the same molecule?
Answer: Its TGI is > 100 µM.

Question: What about the GI50 [48] of the same molecule?
Answer: Its GI50 is 46.2 µM.

Question: What about the TGI [48] of the same molecule?
Answer: Its TGI is > 100 µM.

Question: And the GI50 [49]?
Answer: Its GI50 is 17.2 µM.

Question: What about the TGI [49] of the same molecule?
Answer: The TGI was 35.1 µM.

Question: What about the GI50 [50] of the same molecule?
Answer: The GI50 was 3.02 µM.

Question: What about the TGI [50] of the same molecule?
Answer: The TGI was 7.56 µM.

Question: And the GI50 [51]?
Answer: The GI50 was 20.2 µM.

Question: And the TGI [51]?
Answer: Its TGI is 41.5 µM.

Question: What about the GI50 [52] of the same molecule?
Answer: The GI50 was 9.48 µM.

Question: What about the TGI [52] of the same molecule?
Answer: Its TGI is 34.1 µM.

Question: And the GI50 [53]?
Answer: The GI50 was 0.374 µM.

Question: What about the TGI [53] of the same molecule?
Answer: The TGI was 2.29 µM.

Question: And the GI50 [54]?
Answer: The GI50 was 13.3 µM.

Question: And the TGI [54]?
Answer: The TGI was 28.1 µM.

Question: What about the GI50 [55] of the same molecule?
Answer: Its GI50 is 1.49 µM.

Question: What about the TGI [55] of the same molecule?
Answer: Its TGI is 3.15 µM.

Question: What about the GI50 [56] of the same molecule?
Answer: The GI50 was 1.97 µM.

Question: What about the TGI [56] of the same molecule?
Answer: The TGI was 31.4 µM.
